In US20040053842A1, “Methods of treatment with CETP inhibitors and antihypertensive agents” (Pfizer Inc., priority 2002, published 2004) one finds solubility data, which are given here for 1 compound.

A short description of this series: aqueous solubility. The class given is physicochemical. The following applies: aqueous environments.

As usually defined, the solubility is the concentration that dissolves in the medium under given conditions. In turn, `CCOC(=O)N1c2ccc(C(F)(F)F)cc2[C@@H](N(Cc2cc(C(F)(F)F)cc(C(F)(F)F)c2)C(=O)OC)C[C@H]1CC` [torceptrapib, [2R,4S]-4-[(3,5-bis-trifluoromethyl-benzyl)-methoxycarbonyl-amino]-2-ethyl-6-trifluoromethyl-3,4-dihydro-2H-quinoline-1-carboxylic acid ethyl ester] registered a solubility of less than 0.04 µg/mL.
